Read-outs that look alike come from different tables or passages of the source. Marks after values point to notes of the source that are not given here. Blank lines part the entries; values can stand above or below the molecule they belong to. Residues, ends and D or L forms follow the SMILES beside them. *: point of attachment. Cbz = O=C(OCc1ccccc1)*
Columns and labels:
CRBN = settings: cited from earlier work
[1] = cited from earlier work
CRBN-DDB1 complex = CRBN-DDB1 complex (Homo sapiens, UniProt Q96SW2); assay: fluorescence polarization; type: binding; settings: for displacement of fluorescence probe (relative binding): single concentration of 1 μM, tested three times
Sequence of CRBN-DDB1 complex (Q96SW2 whole entry): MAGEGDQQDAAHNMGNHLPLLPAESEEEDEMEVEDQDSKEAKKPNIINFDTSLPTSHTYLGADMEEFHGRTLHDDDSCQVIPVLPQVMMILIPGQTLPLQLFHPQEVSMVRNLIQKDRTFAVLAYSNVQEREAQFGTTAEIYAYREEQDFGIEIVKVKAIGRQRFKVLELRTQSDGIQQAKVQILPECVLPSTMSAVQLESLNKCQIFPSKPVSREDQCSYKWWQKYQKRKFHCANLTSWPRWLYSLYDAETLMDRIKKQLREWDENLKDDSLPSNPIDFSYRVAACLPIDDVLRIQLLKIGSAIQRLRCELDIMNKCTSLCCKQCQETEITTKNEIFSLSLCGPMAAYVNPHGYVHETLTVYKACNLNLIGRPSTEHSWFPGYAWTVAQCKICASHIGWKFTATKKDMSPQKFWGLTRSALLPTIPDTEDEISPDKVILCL
Sequence of CRBN-DDB1 complex (Q16531 whole entry partner): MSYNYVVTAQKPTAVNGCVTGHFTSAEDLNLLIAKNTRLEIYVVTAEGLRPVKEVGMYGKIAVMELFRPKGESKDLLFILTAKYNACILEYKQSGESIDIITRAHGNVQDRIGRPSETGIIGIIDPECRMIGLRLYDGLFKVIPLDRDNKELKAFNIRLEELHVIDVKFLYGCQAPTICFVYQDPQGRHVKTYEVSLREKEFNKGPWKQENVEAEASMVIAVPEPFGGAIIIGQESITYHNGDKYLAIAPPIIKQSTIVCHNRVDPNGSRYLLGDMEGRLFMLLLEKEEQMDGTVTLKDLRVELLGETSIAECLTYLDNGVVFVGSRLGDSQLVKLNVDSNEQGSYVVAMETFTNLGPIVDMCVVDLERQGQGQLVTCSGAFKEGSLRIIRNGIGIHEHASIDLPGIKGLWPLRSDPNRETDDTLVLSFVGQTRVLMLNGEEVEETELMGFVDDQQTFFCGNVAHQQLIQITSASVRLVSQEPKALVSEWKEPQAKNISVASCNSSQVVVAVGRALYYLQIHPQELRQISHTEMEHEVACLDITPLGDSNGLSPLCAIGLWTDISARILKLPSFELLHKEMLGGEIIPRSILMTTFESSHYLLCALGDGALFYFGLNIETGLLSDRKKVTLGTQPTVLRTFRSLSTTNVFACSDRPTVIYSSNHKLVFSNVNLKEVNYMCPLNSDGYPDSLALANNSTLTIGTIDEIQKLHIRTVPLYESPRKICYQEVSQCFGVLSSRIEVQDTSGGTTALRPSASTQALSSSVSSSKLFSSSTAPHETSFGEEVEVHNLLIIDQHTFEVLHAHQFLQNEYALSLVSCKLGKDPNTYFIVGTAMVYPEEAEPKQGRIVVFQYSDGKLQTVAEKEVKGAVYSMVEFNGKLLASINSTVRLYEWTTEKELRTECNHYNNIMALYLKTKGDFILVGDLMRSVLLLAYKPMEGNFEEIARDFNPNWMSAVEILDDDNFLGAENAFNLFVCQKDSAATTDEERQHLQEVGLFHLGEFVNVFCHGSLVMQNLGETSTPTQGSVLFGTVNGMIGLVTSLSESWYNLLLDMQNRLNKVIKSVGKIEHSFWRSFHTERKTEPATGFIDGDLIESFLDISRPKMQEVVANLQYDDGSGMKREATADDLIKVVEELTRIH

[2] = ring opening hydrolysis stability in buffer with different pHs; type: physicochemical; settings: for pH=1.0, ring opening hydrolysis, percent compound remaining: pH 1.0, after 24 h; for pH=7.4, ring opening hydrolysis, percent compound remaining: pH 7.4 buffer, after 24 h, 37°C
IKZF1 = assay: Western blot of IKZF1 in MV4; type: cell-based, human; settings: MV4;11 cells, 10 and 1 μM, 24 h
IKZF3 = assay: Western blot of IKZF3 in MV4; type: cell-based, human; settings: MV4;11 cells, 10 and 1 μM, 24 h
GSPT1 = assay: Western blot of GSPT1 in MV4; type: cell-based, human; settings: MV4;11 cells, 10 and 1 μM, 24 h
MV4;11 cells [3] = assay: AlamarBlue cell viability; type: cell-based, human; settings: 72 h
BRD4 = BRD4 (Homo sapiens, UniProt O60885); assay: Western blot of BRD4; settings: for effect of pretreatment on BRD4 degradation induced by 13: pretreated 1 h, then 13 for 3 h; for degradation of BRD4: 24 h
MV4;11 cells [4] = assay: flow cytofluorimetric cell cycle analysis; type: cell-based, human; settings: 48 h
MV4;11 cells [5] = assay: flow cytofluorimetric apoptosis analysis; type: cell-based, human; settings: 48 h
caspase 3 cleavage = assay: Western blot of caspase 3 and cleaved caspase 3 in MV4; settings: MV4;11 cells, 10 nM to 10 μM, 24 h
[6] = in human blood; cited from earlier work
[7] = in-vivo in humans; cited from earlier work

Compound: O=C1CC[C@H](N2C(=O)c3ccccc3C2=O)C(=O)N1 (single isomer, unassigned) [(S)-enantiomeric thalidomide]
binding affinity to CRBN relative to the (R)-enantiomer (CRBN): at least 10 fold

Compound: [2H]C1(N2C(=O)c3ccccc3C2=O)CCC(=O)NC1=O (stereo not drawn) [Compound 1D]
racemization relative to thalidomide [1]: about five times slower than thalidomide

displacement of fluorescence probe (relative binding) (CRBN-DDB1 complex): almost completely lost the binding
Compound: O=C1CCN(c2ccccc2O)C(=O)N1 [Compound 3A, 1-(2-hydroxyphenyl)dihydropyrimidine-2,4(1H,3H)-dione]

increase of affinity by ortho-Me relative to parent PDHU 2 (CRBN-DDB1 complex; FP assay): about 2.5 times
Compound: Cc1ccccc1N1CCC(=O)NC1=O [Compound 3B, 1-(o-tolyl)dihydropyrimidine-2,4(1H,3H)-dione]

displacement of fluorescence probe (relative binding) (CRBN-DDB1 complex): decreased the binding
Compound: COc1ccccc1N1CCC(=O)NC1=O [Compound 3C, 1-(2-methoxyphenyl)dihydropyrimidine-2,4(1H,3H)-dione]

pH=1.0, ring opening hydrolysis, percent compound remaining [2]: >99^[g] %
pH=7.4, ring opening hydrolysis, percent compound remaining [2]: >99%
Compound: Cc1c(C#CCNC(=O)OC(C)(C)C)cccc1N1CCC(=O)NC1=O [Compound 6F, tert-butyl (3-(3-(2,4-dioxotetrahydropyrimidin-1(2H)-yl)-2-methylphenyl)prop-2-yn-1-yl)carbamate]
degradation of IKZF1 (IKZF1): do not induce the degradation
degradation of IKZF3 (IKZF3): do not induce the degradation
degradation of GSPT1 (GSPT1): do not induce the degradation

pH=1.0, ring opening hydrolysis, percent compound remaining [2]: >99%
pH=7.4, ring opening hydrolysis, percent compound remaining [2]: >99%
Compound: Cc1c(OCC(=O)N2CCCCC2)cccc1N1CCC(=O)NC1=O [Compound 9, 1-(2-methyl-3-(2-oxo-2-(piperidin-1-yl)ethoxy)phenyl)dihydropyrimidine-2,4(1H,3H)-dione]
degradation of IKZF1 (IKZF1): do not induce the degradation
degradation of IKZF3 (IKZF3): do not induce the degradation
degradation of GSPT1 (GSPT1): do not induce the degradation
anti-proliferation activity (MV4;11 cells [3]; at up to 100 μM): did not show any anti-proliferation activity
effect of pretreatment on BRD4 degradation induced by 13 (BRD4; MV4;11 cells): abolished the BRD4 degradation induced by 13

pH=1.0, ring opening hydrolysis, percent compound remaining [2]: >99%
pH=7.4, ring opening hydrolysis, percent compound remaining [2]: >99%
Compound: CCNC(=O)COc1cccc(N2CCC(=O)NC2=O)c1C [Compound 10, 2-(3-(2,4-dioxotetrahydropyrimidin-1(2H)-yl)-2-methylphenoxy)-N-ethylacetamide]
degradation of IKZF1 (IKZF1): do not induce the degradation
degradation of IKZF3 (IKZF3): do not induce the degradation
degradation of GSPT1 (GSPT1): do not induce the degradation

pH=1.0, ring opening hydrolysis, percent compound remaining [2]: >99%
pH=7.4, ring opening hydrolysis, percent compound remaining [2]: >99%
Compound: CC(=O)NCCC#Cc1cccc(N2CCC(=O)NC2=O)c1C [Compound 11, N-(4-(3-(2,4-dioxotetrahydropyrimidin-1(2H)-yl)-2-methylphenyl)but-3-yn-1-yl)acetamide]
degradation of IKZF1 (IKZF1): do not induce the degradation
degradation of IKZF3 (IKZF3): do not induce the degradation
degradation of GSPT1 (GSPT1): do not induce the degradation

Compound: Cc1sc2c(c1C)C(c1ccc(Cl)cc1)=N[C@@H](CC(=O)NCCCC#Cc1cccc(N3CCC(=O)NC3=O)c1C)c1nnc(C)n1-2 [Compound 12C, (S)-2-(4-(4-chlorophenyl)-2,3,9-trimethyl-6H-thieno[3,2-f][1,2,4]triazolo[4,3-a][1,4]diazepin-6-yl)-N-(5-(3-(2,4-dioxotetrahydropyrimidin-1(2H)-yl)-2-methylphenyl)pent-4-yn-1-yl)acetamide]
degradation of BRD4 (BRD4; in MV4;11 and LNCAP, 1.0 and 0.1 μM): showed obviously BRD4 degradation activity

Compound: Cc1sc2c(c1C)C(c1ccc(Cl)cc1)=N[C@@H](CC(=O)NC1CCN(C(=O)COc3cccc(N4CCC(=O)NC4=O)c3C)CC1)c1nnc(C)n1-2 [Compound 13, (S)-2-(4-(4-chlorophenyl)-2,3,9-trimethyl-6H-thieno[3,2-f][1,2,4]triazolo[4,3-a][1,4]diazepin-6-yl)-N-(1-(2-(3-(2,4-dioxotetrahydropyrimidin-1(2H)-yl)-2-methylphenoxy)acetyl)piperidin-4-yl)acetamide]
cell cycle effect (MV4;11 cells [4]): induce G1 phase arrest, decrease the cell population in S phase
cell apoptosis (MV4;11 cells [5]): induced cell apoptosis in a dose-dependent manner
caspase 3 cleavage (caspase 3 cleavage): successful in inducing caspase 3 cleavage

Compound: Cc1sc2c(c1C)C(c1ccc(Cl)cc1)=N[C@@H](CC(=O)NC1CCN(C(=O)COc3cccc(N4CCC(=O)N(C)C4=O)c3C)CC1)c1nnc(C)n1-2 [Compound 13NT, (S)-2-(4-(4-chlorophenyl)-2,3,9-trimethyl-6H-thieno[3,2-f][1,2,4]triazolo[4,3-a][1,4]diazepin-6-yl)-N-(1-(2-(2-methyl-3-(3-methyl-2,4-dioxotetrahydropyrimidin-1(2H)-yl)phenoxy)acetyl)piperidin-4-yl)acetamide]
degradation of BRD4 (BRD4; MV4;11 cells, several different concentrations): no degradation activity of BRD4 was observed

Compound: Cc1sc2c(c1C)C(c1ccc(Cl)cc1)=N[C@@H](CC(=O)OC(C)(C)C)c1nnc(C)n1-2 [JQ1, reference compound]
anti-proliferation activity (MV4;11 cells [3]): weaker anti-proliferation activity than 13, but higher activity than compound 13NT

pH=1.0, ring opening hydrolysis, percent compound remaining [2]: >99%
pH=8.8, ring opening hydrolysis, percent compound remaining ([2]; pH 8.8, after 24 h): 0%
Compound: Nc1cccc2c1CN(C1CCC(=O)NC1=O)C2=O (stereo not drawn) [Lenalidomide, lenalidomide, reference compound]

Compound: CC(C)C[C@@H](C=O)NC(=O)[C@H](CC(C)C)NC(=O)[C@H](CC(C)C)NC(=O)OCc1ccccc1 [MG132, reference compound] (Cbz-Leu-Leu-Leu-aldehyde)
effect of pretreatment on BRD4 degradation induced by 13 (BRD4; MV4;11 cells): abolished the BRD4 degradation induced by 13

Compound: NS(=O)(=O)OC[C@@H]1C[C@@H](n2ccc3c(N[C@H]4CCc5ccccc54)ncnc32)C[C@@H]1O [MLN4924, reference compound]
effect of pretreatment on BRD4 degradation induced by 13 (BRD4; MV4;11 cells): abolished the BRD4 degradation induced by 13

Compound: O=C1CCC(N2C(=O)c3ccccc3C2=O)C(=O)N1 (stereo not drawn) [thalidomide]
racemization half-life [6]: ~ 2.0 h
racemization half-life [7]: ~ 5.0 h
